PubChem BioAssay AID602210 (Sanford-Burnham Center for Chemical Genomics, 2012)
The source made the active and inactive calls. How the calls were made is not given here.

Test: modulators of 2-deoxyglucose-induced H9c2 death, dose response, myocardial damage modulator project, cell-based, ATPlite luminescence, rat, set 2 (AID 602210)
Conditions: H9c2 rat cardiomyoblasts, 2-deoxyglucose-induced death, 2 h

Row | SMILES | IC50
1 | COc1cc(-c2cc(NC=O)c3ncc(-c4ccc(C(C)=O)cc4)n3c2)cc(OC)c1OC | 6.7 µM
2 | COc1cc(-c2cc(C(=O)Nc3ccccc3N3CCOCC3)c3ccccc3n2)cc(OC)c1OC | 11.2 µM (inactive)
3 | COc1cc(-c2cc(C(=O)NCc3ccco3)c3ccccc3n2)cc(OC)c1OC | 16.4 µM (inactive)
4 | Brc1cc2c(cc1/C=N/Nc1nc(N3CCCC3)nc(N3CCOCC3)n1)OCO2 | 16 µM (inactive)
5 | COc1ccc(OCC(O)Cn2c(Nc3cccc(C)c3)nc3c2c(=O)n(C)c(=O)n3C)cc1 (stereo not drawn) | 34 µM (inactive)
6 | c1ccc(N2CCOCC2)c(Nc2nc3ccccc3n3cnnc23)c1 | 33.1 µM (inactive)
7 | CCOC(=O)N1CCc2c(sc(NC(=O)CN3CCOCC3)c2C(=O)Nc2ccccc2)C1 | > 79 µM (inactive)
8 | CN1CCc2nc3ccccc3c(C(=O)OCC(=O)N(CCC#N)c3ccccc3)c2C1 | > 79 µM (inactive)
9 | COc1ccc(CC(=O)N(Cc2ccccc2)c2ccccc2)cc1S(=O)(=O)N1CCOCC1 | 8.92 µM
10 | COc1ccc(CNn2c(-c3cccs3)nc3ccccc3c2=O)cc1OC | 12.9 µM (inactive)
11 | O=C(NCCN1CCN(c2ccccc2F)CC1)c1cccn2c(=O)c3ccccc3nc12 | 11.7 µM (inactive)
12 | COc1ccc(OC)c(NC(=O)c2sc3ncnc(N4CCN(c5ccccn5)CC4)c3c2C)c1 | 12.1 µM (inactive)
13 | COc1ccc(OC)c(N(CC(=O)Nc2cccnc2)S(=O)(=O)c2ccc(OC)c(OC)c2)c1 | 32.2 µM (inactive)
14 | S=C(Nc1ccc(N2CCOCC2)cc1)Nc1ccc2nc(-c3ccco3)c(-c3ccco3)nc2c1 | 11.3 µM (inactive)
15 | Nc1cc2[nH]c(=O)c3ccccc3c2cc1[N+](=O)[O-] | 24.4 µM (inactive)
16 | CC(C)(C)NC(=O)COC(=O)c1c2c(nc3ccccc13)CCC2 | 16.7 µM (inactive)
17 | CN(CC1COc2ccccc2O1)c1nc(-c2cccnc2)nc2ccccc12 (stereo not drawn) | 18.9 µM (inactive)
18 | CC(C)(C)OC(=O)CNC(=O)c1[nH]cnc1C(=O)Nc1ccc(CNC(=O)OC(C)(C)C)cc1 | 5.09 µM
19 | O=C1c2ccccc2C(=O)N1CCCCSc1nc2ccccc2c(=O)n1CCCN1CCOCC1 | > 79 µM (inactive)
20 | CC(C)(C)OC(=O)C[C@@H]1C/C=C\C[C@@H](CC(=O)N[C@H](CO)Cc2ccccc2)C(=O)NC[C@@H](c2ccccc2)OC1=O | 64 µM (inactive)
21 | CCOc1ccccc1N1CC(O)=C(c2nc3ccccc3s2)C1=N | 13.8 µM (inactive)

Row | SMILES | IC50
22 | COc1ccc(C(=O)COC(=O)C(CCCCN2C(=O)C3C4C=CC(C4)C3C2=O)N2C(=O)C3C4C=CC(C4)C3C2=O)cc1 (stereo not drawn) | 11.8 µM (inactive)
23 | COc1cccc(/C=N/NC(=O)c2oc3nc(-c4ccccc4)cc(-c4ccco4)c3c2N)c1 | 10.5 µM (inactive)
24 | COc1ccc(-n2nc(C(=O)NCC(=O)Nc3cc(OC)c(OC)c(OC)c3)c3ccccc3c2=O)cc1Cl | 7.79 µM
25 | COc1cc(NC(=O)c2cc([N+](=O)[O-])ccc2NC(=O)CN2CCN(c3ccccn3)CC2)cc(OC)c1 | > 79 µM (inactive)
26 | CCOC(=O)N1CCN(C(=O)CSc2nc3ccccc3c(=O)n2-c2ccccc2)CC1 | 34.5 µM (inactive)
27 | COC(=O)c1cccc(Nc2nc(-c3cccnc3)nc3ccccc23)c1 | 7.25 µM
28 | COc1ccc(-c2cc(C(=O)NC(C)c3ccccn3)c3ccccc3n2)cc1OC (stereo not drawn) | 13.4 µM (inactive)
29 | N#C/C(=C\Nc1ccc2c(c1)OCCO2)c1nc2ccccc2[nH]1 | 17.3 µM (inactive)
30 | COc1ccc(COc2cc(-c3cccc(OC)c3)nc3ccc(NC(=O)c4cccnc4)cc23)cc1 | 3.51 µM
31 | O=C(c1cc(=O)[nH]c2ccccc12)N1CCN(S(=O)(=O)c2ccc3ccccc3c2)CC1 | 17.4 µM (inactive)
32 | COC(=O)c1[nH]c2ccccc2c1NC(=O)CNC1CCCCC1 | 13.5 µM (inactive)
33 | COc1ccc(-c2csc(NC(=O)c3cccc(N4C(=O)CCC4=O)c3)n2)cc1OC | 13.1 µM (inactive)
34 | Cc1ccc(C=NNc2nc3c([nH]2)c(=O)n(C)c(=O)n3C)cc1 | 11 µM (inactive)
35 | CCOc1ccc(C(C(=O)NC2CCCC2)N(C(=O)c2snc(C(N)=O)c2N)c2cccc(O)c2)cc1 (stereo not drawn) | 6.74 µM
36 | COc1cc(/C=N/NC(=O)c2cccnc2)ccc1OS(=O)(=O)c1ccc(F)cc1 | 21.2 µM (inactive)
37 | COc1cccc(-c2cnc3c(NC=O)cc(-c4cc(C)c(O)c(C)c4)cn23)c1 | 18.9 µM (inactive)
38 | CC(=O)c1ccc(-c2cnc3c(NC=O)cc(-c4cccc(NS(C)(=O)=O)c4)cn23)cc1 | 18 µM (inactive)
39 | Fc1ccc(CSc2ccc3nnc(-c4cccnc4)n3n2)cc1 | 44.5 µM (inactive)
40 | N#C/C(=C\c1cn(-c2ccccc2)nc1-c1cccnc1)c1nnc2n1CCCCC2 | 30.2 µM (inactive)
41 | COc1ccc(Cl)cc1-c1nc(-c2ccc(NC(=O)c3cccs3)cc2)no1 | > 79 µM (inactive)
42 | O=C(Nc1cc(S(=O)(=O)N2CCOCC2)ccc1N1CCCCC1)c1cc(-c2ccccn2)nc2ccccc12 | 14.6 µM (inactive)

Row | SMILES | IC50
43 | O=C(NCc1ccco1)c1cc(-c2cccnc2)nc2ccc(Cl)cc12 | > 79 µM (inactive)
44 | COc1ccc(C=NNc2nc3c([nH]2)c(=O)n(C)c(=O)n3C)cc1 | 16.6 µM (inactive)
45 | CCOC(=O)c1ccccc1OCc1cc(/C=N/NC(=O)c2cccnc2)ccc1OC | 6.98 µM
46 | COc1ccc(-c2cc(-c3nnc(COC(=O)c4ccncc4)o3)c3ccccc3n2)cc1OC | 18.1 µM (inactive)
47 | CC/C(C)=N\N=C\c1c(O)n(CC)c2cc(C3=NNC(=O)CC3)ccc12 | > 79 µM (inactive)
48 | COC(=O)c1ccccc1NC(=O)c1ccc2nccnc2c1 | 48.8 µM (inactive)
49 | CCn1c(O)c(/C=N/N=C/c2ccccc2)c2ccc(C3=NNC(=O)CC3)cc21 | 10.7 µM (inactive)
50 | O=C(CN1C(=O)C2C3C=CC(C3)C2C1=O)Nc1nc(-c2ccccn2)cs1 (stereo not drawn) | 24.7 µM (inactive)
51 | CCOc1cccc(Nc2cc3n(c(=O)n2)CCc2cc(OC)c(OC)cc2-3)c1 | 28 µM (inactive)
52 | COc1cc(C(=O)N/N=C/c2ccc(OC(=O)c3ccccc3Cl)cc2)ccc1O | > 79 µM (inactive)
53 | CCC(c1nnnn1Cc1ccccc1)N1CCC(n2c(=O)[nH]c3ccccc32)CC1 (stereo not drawn) | 1.98 µM
54 | COc1ccc(-c2nc(NC(=O)c3ccc(OCC(=O)N4CCOCC4)c(OC)c3)sc2C)cc1 | 23.7 µM (inactive)
55 | Cc1cccc(NC(=O)c2oc3ccc(S(=O)(=O)N4CCOCC4)cc3c2C)c1C | 11 µM (inactive)
56 | O=C(C[C@@H]1C/C=C/CC[C@@H](Cc2ccc(F)cc2)C(=O)O[C@@H](c2ccccc2)CNC1=O)NCCO | 27.5 µM (inactive)
57 | CC(=O)Nc1ccc(Nc2nc(-c3sc(NC(C)=O)nc3C)cs2)cc1 | 18.8 µM (inactive)
58 | OC1CCN(c2c3c(nc4cc(-c5cccc(F)c5)nn24)CCCC3)CC1 | 23.8 µM (inactive)
59 | C=C1C(C)C2C(Cc3ccccc3)NC(=O)C23OC(=O)/C=C/C(O)CCCC(C)C/C=C/C3C1O (stereo not drawn) | 0.95 µM
60 | NS(=O)(=O)c1ccc(CCNC(=O)c2ccc(C#CC3(O)CCCCC3)cc2)cc1 | 4.94 µM
61 | COc1cccc(C(=O)CSc2nnc(-c3cc(OC)c(OC)c(OC)c3)o2)c1 | > 79 µM (inactive)
62 | CC(C)(C)OC(=O)NCC12C=CC(O1)C1C(=O)N(Cc3ccccc3)C(=O)C12 (stereo not drawn) | 21.5 µM (inactive)
63 | O=C(Nc1ccccc1)c1nc[nH]c1C(=O)NCCNC(=O)c1[nH]cnc1C(=O)Nc1ccccc1 | 1.17 µM
